Measured values reported in patent publication US9044501B2, “Method of preventing and/or treating a neurodegenerative disease by administering an extract of Lycoris chejuensis and/or a compound isolated therefrom” (KOREA INSTITUTE OF SCIENCE AND TECHNOLOGY, priority 2009, dated 2015).

Legend:
[1] = system: β-amyloid (Aβ42) production; test: β-amyloid (Aβ42) production in APP-transfected HeLa cells, ELISA of culture solution; format: cell-based, human; conditions: for Inhibition rate (%) of Aβ42 production compared to that of negative control: 8 hours
viable cells = test: MTT Cell Proliferation assay, effect on cell death; format: cell-based
Method: In order to measure the effect of an extraction or a fraction of Lycoris chejuensis on cell death, MTT Cell Proliferation assay (ATCC catalog #30-1010K, Manassas, USA), which is a conventionally known method, was used. In particular, a cell was treated with various concentrations of an ethanol extract (CJ) of Lycoris chejuensis and a butanol fraction (CJ-3) of Lycoris chejuensis for 8 hours, and then, viable cells were quantified.

[2] = system: β-secretase product (sAPPβ) production; test: β-secretase product (sAPPβ) production in APP-transfected HeLa cells, sAPPβ-Wild Type Assay Kit; format: cell-based; conditions: Homo sapiens, read-out: Inhibition rate (%) of sAPPβ production compared to negative control
Description: The cause of inhibition of β-amyloid production in the Experimental example <3> was examined in more detail. β-amyloid was produced from amyloid precursor(APP) by continuous actions of membrane protein hydrolytic enzyme, β-secretase (BACE1), and γ-secretase (Vassa and Citron, Neuron 27, 419-422, 2000). More specifically, β-secretase product(sAPPβ) is produced from amyloid precursor (APP) by the action of β-secretase, from which β-amyloid is produced by the action of γ-secretase.
Based on the above, it was identified whether or not dihydrolycoricidine obtained in Example <2-1> is capable of inhibiting the production of β-secretase product(sAPPβ). Specifically, the same procedure as Experimental example <3> was conducted except that sAPPβ-Wild Type Assay Kit (Immuno-Biological Laboratories Co., Ltd., Japan) was used for quantifying sAPPβ. The negative control means the case to which dihydrolycoricidine was not added.

[3] = system: β-amyloid (Aβ40) production; test: β-amyloid (Aβ40) production in APP-transfected HeLa cells, ELISA of culture solution; format: cell-based, human; conditions: for Inhibition rate (%) of Aβ40 production compared to that of negative control: 8 hours
[4] = system: β-amyloid (Aβ40) production; test: as above; format: cell-based, human
Method: (§1) In order to examine the effect of the ethanol extract of Lycoris chejuensis obtained in Example <1-1> to inhibit β-amyloid production, HeLa cell line transfected with human amyloid precursor protein(APP) was cultured in DMEM culture medium (Cat. #11995, Gibco, USA). The cell line was supplied by Prof. Tae-Wan Kim, Department of Pathology, Columbia University Medical Center, New York, N.Y.10032, USA.
(§2) To the cell culture solution, the ethanol extract of Lycoris chejuensis (CJ) obtained in Example <1-1> was added, and then, it was cultured at 37° C. for 8 hours, and the amount of β-amyloid secreted in the culture solution was measured. More specifically, in order to quantify β-amyloid, two kinds of β-amyloid (Aβ40, Aβ42), Human β-Amyloid (Aβ40) and Human β-Amyloid (Aβ42) Colorimetric ELISA kits (#KHB3482 and #KHB3442; BioSource International, Inc., USA) were respectively used. The negative control means the case to which the extract of Lycoris chejuensis was not added.

[5] = system: β-amyloid (Aβ42) production; test: β-amyloid (Aβ42) production in APP-transfected HeLa cells, ELISA of culture solution; format: cell-based, human
Method: as §1, §2

[6] = Homo sapiens, HeLa, 8 h, read-out: Inhibition rate (%) of Aβ40 production compared to that of negative control
[7] = Homo sapiens, HeLa, 8 h, read-out: Inhibition rate (%) of Aβ42 production compared to that of negative control
[8] = 10, 5, 1, 0.5, 0.2, 0.1 and 0.05 μg/ml, 8 hours

O=C1NC2C(CC(O)C(O)C2O)c2cc3c(cc21)OCO3 (stereo not shown) [dihydrolycoricidine]
inhibition at 5 µM ([1]; Homo sapiens, HeLa, 5 μM, read-out: Inhibition rate (%) of Aβ42 production compared to that of negative control): 58.8% | inhibition at 10 µM ([1]; Homo sapiens, HeLa, 10 μM, read-out: Inhibition rate (%) of Aβ42 production compared to that of negative control): 63.8% | inhibition at 25 µM ([1]; Homo sapiens, HeLa, 25 μM, read-out: Inhibition rate (%) of Aβ42 production compared to that of negative control): 88.8% | inhibition at 50 µM ([1]; Homo sapiens, HeLa, 50 μM, read-out: Inhibition rate (%) of Aβ42 production compared to that of negative control): 92.2% | cells died (viable cells; 50 μM): ≤ 30% | Cell death (%) compared to negative control (viable cells; dihydrolycoricidine 5 μM): 18.3% | Cell death (%) compared to negative control (viable cells; dihydrolycoricidine 10 μM): 23.3% | Cell death (%) compared to negative control (viable cells; dihydrolycoricidine 25 μM): 25.3% | Cell death (%) compared to negative control (viable cells; dihydrolycoricidine 50 μM): 28.1% | inhibition at 5 µM ([2]; 5 μM): 6% | inhibition at 10 µM ([2]; 10 μM): 12% | inhibition at 25 µM ([2]; 25 μM): 28.9% | inhibition at 50 µM ([2]; 50 μM): 36.1% | inhibition at 5 µM ([3]; Homo sapiens, HeLa, 5 μM, read-out: Inhibition rate (%) of Aβ40 production compared to that of negative control): 28.4% | inhibition at 10 µM ([3]; Homo sapiens, HeLa, 10 μM, read-out: Inhibition rate (%) of Aβ40 production compared to that of negative control): 56.1% | inhibition at 25 µM ([3]; Homo sapiens, HeLa, 25 μM, read-out: Inhibition rate (%) of Aβ40 production compared to that of negative control): 59.8% | inhibition at 50 µM ([3]; Homo sapiens, HeLa, 50 μM, read-out: Inhibition rate (%) of Aβ40 production compared to that of negative control): 63%

O=C1NC2C(=CC(O)C(O)C2O)c2cc3c(cc21)OCO3 (stereo not shown) [lycoricidine]
inhibition at 0.01 µg/mL [4, 6]: 3.3% | inhibition at 0.1 µg/mL [4, 6]: 67% | inhibition at 1 µg/mL [4, 6]: 92.8% | inhibition at 10 µg/mL [4, 6]: 97.2% | cells died (viable cells; 10 μM (lycoricidine)): ≤ 20% | Cell death (%) compared to negative control (viable cells; 8 h, 0.01 μg/ml): 4.9% | Cell death (%) compared to negative control (viable cells; 8 h, 0.1 μg/ml): 11.3% | Cell death (%) compared to negative control (viable cells; 8 h, 1 μg/ml): 19.0% | Cell death (%) compared to negative control (viable cells; 8 h, 10 μg/ml): 21.1% | inhibition at 0.01 µg/mL [5, 7]: 16% | inhibition at 0.1 µg/mL [5, 7]: 81.3% | inhibition at 1 µg/mL [5, 7]: 97.5% | inhibition at 10 µg/mL [5, 7]: 100%

COC1C=C2C3CN(Cc4cc5c(cc43)OCO5)C2CC1O (stereo not shown) [2-methoxypancracine]
β-amyloid (Aβ40) production (FIG. 7) [4, 8]: inhibited by 2-methoxypancracine in a concentration dependent manner | cells died (viable cells; 5 μg/ml (FIG. 11)): ≤ 10% | β-amyloid (Aβ42) production (FIG. 7) [5, 8]: inhibited by 2-methoxypancracine in a concentration dependent manner

O=C1NC2C(=CC(O)C(O)C2O)c2cc3c(c(O)c21)OCO3 (stereo not shown) [lycoricidinol]
Inhibition rate (%) of Aβ42 production compared to that of negative control ([1]; lycoricidinol 0.01 μg/ml): 44.0% | Inhibition rate (%) of Aβ42 production compared to that of negative control ([1]; lycoricidinol 0.1 μg/ml): 97.0% | Inhibition rate (%) of Aβ42 production compared to that of negative control ([1]; lycoricidinol 1 μg/ml): 100% | Inhibition rate (%) of Aβ42 production compared to that of negative control ([1]; lycoricidinol 10 μg/ml): 100% | cells died (viable cells; 10 μM (lycoricidinol)): ≤ 20% | Cell death (%) compared to negative control (viable cells; lycoricidinol 0.01 μg/ml): 10.3% | Cell death (%) compared to negative control (viable cells; lycoricidinol 0.1 μg/ml): 11.6% | Cell death (%) compared to negative control (viable cells; lycoricidinol 1 μg/ml): 16.5% | Cell death (%) compared to negative control (viable cells; lycoricidinol 10 μg/ml): 19.3% | Inhibition rate (%) of Aβ40 production compared to that of negative control ([3]; lycoricidinol 0.01 μg/ml): 25.0% | Inhibition rate (%) of Aβ40 production compared to that of negative control ([3]; lycoricidinol 0.1 μg/ml): 90.4% | Inhibition rate (%) of Aβ40 production compared to that of negative control ([3]; lycoricidinol 1 μg/ml): 97.8% | Inhibition rate (%) of Aβ40 production compared to that of negative control ([3]; lycoricidinol 10 μg/ml): 98.4%
